This is an account of results in PubChem BioAssay AID226 (DTP/NCI, 2004).

Where “and” joins values, the source holds several entries; their conditions need not be identical. Equal values may be shown once. Toxic doses and inconclusive results are not listed.

This experiment has as its system B6C3F1 mice, intracerebral ependymoblastoma, median survival T/C. Briefly: NCI In Vivo Anticancer Drug Screen. Data for tumor model Ependymoblastoma (intracerebral) in B6C3F1 mice. The conditions noted are these: endpoint: median survival time, higher = longer survival. The method, then: The antitumor activity of compounds was measured in mice bearing transplantable tumors. Survival or tumor size were measured and the results are expressed as the measurement made in the treated group (T) divided by the measurement made in the vehicle treated control group (C). The tumor model used in this assay is Ependymoblastoma (intracerebral) in B6C3F1 mice

Setting [1] is: dose: 32.0 mg/kg/injection, schedule: Q01DX005 (ip), vehicle: saline with Tween-80.
The mark [2] stands for this setting: dose: 12.5 mg/kg/injection, schedule: Q01DX009 (ip), vehicle: saline with Tween-80.
The mark [3] stands for this setting: dose: 25.0 mg/kg/injection, schedule: Q01DX009 (ip), vehicle: saline with Tween-80.
Setting [4] is: dose: 50.0 mg/kg/injection, schedule: Q01DX005 (ip), vehicle: saline.
Setting [5] is: dose: 100.0 mg/kg/injection, schedule: Q01DX005 (ip), vehicle: Klucel (hydroxypropylcellulose) (HPC).
The mark [6] stands for this setting: dose: 200.0 mg/kg/injection, schedule: Q01DX005 (ip), vehicle: Klucel (hydroxypropylcellulose) (HPC).
Where [7] appears, read: dose: 200.0 mg/kg/injection, schedule: Q01DX005 (ip), vehicle: saline.

With `CC(C)NCC(O)COc1cccc2ccccc12` (configuration not stated), the T/C is, setting by setting: (dose: 4.0 mg/kg/injection, schedule: Q01DX005 (ip), vehicle: saline with Tween-80) 107 % of control; (dose: 4.0 mg/kg/injection, schedule: Q01DX009 (ip), vehicle: saline with Tween-80) 107 % of control; (dose: 8.0 mg/kg/injection, schedule: Q01DX005 (ip), vehicle: saline with Tween-80) 101 % of control; (dose: 8.0 mg/kg/injection, schedule: Q01DX009 (ip), vehicle: saline with Tween-80) 101 % of control; (dose: 16.0 mg/kg/injection, schedule: Q01DX005 (ip), vehicle: saline with Tween-80) 112 % of control; (dose: 16.0 mg/kg/injection, schedule: Q01DX009 (ip), vehicle: saline with Tween-80) 115 % of control. Also, the T/C reads like this: under setting [1], 107 % of control; (dose: 32.0 mg/kg/injection, schedule: Q01DX009 (ip), vehicle: saline with Tween-80) 105 % of control; (dose: 64.0 mg/kg/injection, schedule: Q01DX005 (ip), vehicle: saline with Tween-80) 107 % of control; (dose: 64.0 mg/kg/injection, schedule: Q01DX009 (ip), vehicle: saline with Tween-80) 107 % of control.

In the case of `O=NN(CCF)C(=O)NC1CCCCC1`, the T/C is, setting by setting: (dose: 5.1 mg/kg/injection, schedule: Q01DX001 (ip), vehicle: other) 106 % of control; (dose: 5.18 mg/kg/injection, schedule: Q01DX005 (ip), vehicle: Klucel (hydroxypropylcellulose) (HPC)) 184 % of control; (dose: 8.64 mg/kg/injection, schedule: Q01DX005 (ip), vehicle: Klucel (hydroxypropylcellulose) (HPC)) 357 % of control; (dose: 10.2 mg/kg/injection, schedule: Q01DX001 (ip), vehicle: other) 123 % of control; (dose: 13.0 mg/kg/injection, schedule: Q01DX001 (ip), vehicle: Klucel (hydroxypropylcellulose) (HPC)) 153 % of control; (dose: 14.4 mg/kg/injection, schedule: Q01DX005 (ip), vehicle: Klucel (hydroxypropylcellulose) (HPC)) 357 % of control. The T/C is 160 % of control (dose: 20.4 mg/kg/injection, schedule: Q01DX001 (ip), vehicle: other); 216 % of control (dose: 21.6 mg/kg/injection, schedule: Q01DX001 (ip), vehicle: Klucel (hydroxypropylcellulose) (HPC)); 357 % of control (dose: 24.0 mg/kg/injection, schedule: Q01DX005 (ip), vehicle: Klucel (hydroxypropylcellulose) (HPC)); 363 % of control (dose: 36.0 mg/kg/injection, schedule: Q01DX001 (ip), vehicle: Klucel (hydroxypropylcellulose) (HPC)); 220 % of control (dose: 40.7 mg/kg/injection, schedule: Q01DX001 (ip), vehicle: other); 363 % of control (dose: 60.0 mg/kg/injection, schedule: Q01DX001 (ip), vehicle: Klucel (hydroxypropylcellulose) (HPC)). Also, the T/C reads like this: (dose: 81.4 mg/kg/injection, schedule: Q01DX001 (ip), vehicle: other) 331 % of control; (dose: 100.0 mg/kg/injection, schedule: Q01DX001 (ip), vehicle: Klucel (hydroxypropylcellulose) (HPC)) 333 % of control.

For `C#C[C@]1(O)CC[C@H]2[C@@H]3CCc4cc(O)ccc4[C@H]3CC[C@@]21C`, the T/C (dose: 8.0 mg/kg/injection, schedule: Q01DX005 (ip), vehicle: Klucel (hydroxypropylcellulose) (HPC)) was 97 % of control and 103 % of control; the T/C (dose: 16.0 mg/kg/injection, schedule: Q01DX005 (ip), vehicle: Klucel (hydroxypropylcellulose) (HPC)) is 98 % of control and 109 % of control; the T/C (dose: 32.0 mg/kg/injection, schedule: Q01DX005 (ip), vehicle: Klucel (hydroxypropylcellulose) (HPC)) is 100 % of control and 106 % of control; the T/C (dose: 64.0 mg/kg/injection, schedule: Q01DX005 (ip), vehicle: Klucel (hydroxypropylcellulose) (HPC)) was 97 % of control and 119 % of control; the T/C (dose: 128.0 mg/kg/injection, schedule: Q01DX005 (ip), vehicle: Klucel (hydroxypropylcellulose) (HPC)) was 104 % of control and 107 % of control; the T/C (dose: 256.0 mg/kg/injection, schedule: Q01DX005 (ip), vehicle: Klucel (hydroxypropylcellulose) (HPC)) was 104 % of control and 124 % of control. The T/C (dose: 512.0 mg/kg/injection, schedule: Q01DX005 (ip), vehicle: Klucel (hydroxypropylcellulose) (HPC)) is 109 % of control and 111 % of control.

As to `CN(C)N=Nc1ccc(C(=O)O)cc1`, under setting [1], the T/C is 122 % of control.

With `Cc1ncc(CNC(=O)N(CCCl)N=O)c(N)n1`, the T/C was 108 % of control and 121 % of control (dose: 8.0 mg/kg/injection, schedule: Q01DX001 (ip), vehicle: water); 175 % of control (dose: 16.0 mg/kg/injection, schedule: Q01DX001 (ip), vehicle: water); 262 % of control and 267 % of control (dose: 32.0 mg/kg/injection, schedule: Q01DX001 (ip), vehicle: water).

Turning to `CC1(C)OC2C(COC(=O)c3ccc([N+](=O)[O-])cc3)OC(NC(=O)N(CCCl)N=O)C2O1` (configuration not stated), the T/C is 100 % of control (dose: 5.0 mg/kg/injection, schedule: Q01DX009 (ip), vehicle: saline); 207 % of control (dose: 10.0 mg/kg/injection, schedule: Q01DX009 (ip), vehicle: saline); 195 % of control under setting [2]; 248 % of control under setting [3].

Consider `OC(CBr)C(O)C(O)C(O)CBr` (configuration not stated), for which the T/C is 102 % of control (dose: 2.0 mg/kg/injection, schedule: Q01DX005 (ip), vehicle: Klucel (hydroxypropylcellulose) (HPC)); 106 % of control (dose: 4.0 mg/kg/injection, schedule: Q01DX005 (ip), vehicle: Klucel (hydroxypropylcellulose) (HPC)); 122 % of control under setting [4]; 97 % of control under setting [5]; 109 % of control under setting [6]; 118 % of control and 195 % of control and 233 % of control under setting [7].

`CN(C)C(=O)N(CCCl)N=O`: the T/C runs as follows: (dose: 5.0 mg/kg/injection, schedule: Q01DX001 (ip), vehicle: DMSO) 106 % of control; (dose: 8.3 mg/kg/injection, schedule: Q01DX001 (ip), vehicle: DMSO) 112 % of control; (dose: 12.5 mg/kg/injection, schedule: Q01DX001 (ip), vehicle: water) 188 % of control; (dose: 23.0 mg/kg/injection, schedule: Q01DX001 (ip), vehicle: DMSO) 366 % of control; (dose: 25.0 mg/kg/injection, schedule: Q01DX001 (ip), vehicle: water) 332 % of control; (dose: 38.4 mg/kg/injection, schedule: Q01DX001 (ip), vehicle: DMSO) 365 % of control.

Turning to `CC(=O)OCC1OC(n2ccc(N)nc2=O)C(OC(C)=O)C1OC(C)=O` (configuration not stated), the T/C was 98 % of control (dose: 50.0 mg/kg/injection, schedule: Q01DX005 (ip), vehicle: Klucel (hydroxypropylcellulose) (HPC)); 102 % of control under setting [5]; 117 % of control under setting [6].

Take `O=C1NC(c2ccc(Cl)cc2)(c2ccc(Cl)cc2)C(=O)N1Cl`: the T/C (dose: 1.56 mg/kg/injection, schedule: Q01DX009 (ip), vehicle: saline with Tween-80) was 102 % of control; the T/C (dose: 3.13 mg/kg/injection, schedule: Q01DX009 (ip), vehicle: saline with Tween-80) was 105 % of control; the T/C (dose: 6.25 mg/kg/injection, schedule: Q01DX009 (ip), vehicle: saline with Tween-80) was 102 % of control; the T/C under setting [2] is 101 % of control and 104 % of control; the T/C under setting [3] was 95 % of control and 99 % of control; the T/C (dose: 50.0 mg/kg/injection, schedule: Q01DX009 (ip), vehicle: saline with Tween-80) was 101 % of control.

For the compound `CN(C)C=O`, the T/C was 92 % of control and 112 % of control under setting [4]; 96 % of control and 98 % of control and 115 % of control (dose: 100.0 mg/kg/injection, schedule: Q01DX005 (ip), vehicle: saline); 94 % of control and 99 % of control and 109 % of control under setting [7]; 94 % of control and 99 % of control and 113 % of control (dose: 400.0 mg/kg/injection, schedule: Q01DX005 (ip), vehicle: saline); 93 % of control and 102 % of control and 105 % of control (dose: 800.0 mg/kg/injection, schedule: Q01DX005 (ip), vehicle: saline); 93 % of control (dose: 1600.0 mg/kg/injection, schedule: Q01DX005 (ip), vehicle: saline). Besides, the T/C (dose: 2400.0 mg/kg/injection, schedule: Q01DX005 (ip), vehicle: saline) is 97 % of control.
